Test results from PMC11189555, “Aryl amino acetamides prevent Plasmodium falciparum ring development via targeting the lipid-transfer protein PfSTART1” (Nature Communications, 2024).
Where “and” joins values, the source holds several entries; their conditions need not be identical. Identical values can stand only once. Like-named read-outs stand apart in the source and are kept apart here.

System: SLI-WT parasites
Test: Growth inhibition assay (72 h, LDH activity)
Assay type: cell-based, Plasmodium falciparum
Conditions: for Growth inhibition, (1 - av / DMSO) x 100: Fig 2B source data, per biological replicate; for sample/DMSO: START(WT); for EC50: Plasmodium falciparum; for percent growth inhibition relative to DMSO control: START(WT) (SLI-WT)
Description: Parasite growth assays with inhibitory compounds were performed as per[11] and are fully described in the Supplementary Information.
Molecular biology and transfection of P. falciparum: Selection Linked Integration […]
To introduce the PfSTART1 mutations, the second half of the coding sequence of pfstart1 (PF3D7_0104200), was recodonised without introns to the bias of Saccharomyces cerevisiae containing either WT, N309K or N330K mutations, and synthesised as gBlock fragments (Integrated DNA Technologies). The first 819 bp of the 5′ native sequence of pfstart1 was amplified from gDNA, to form the 5’ homology block (5’ HB). The 3′ recodonised gBlock fragment comprising of the last 552 bp of either the WT, N309K or N330K pfstart1 to form the ‘recodon’ block (primers listed in Table S2). The 5’ HB and recodon products were sewn together by overlapping PCR to reconstitute the full coding sequence of pfstart1. These blocks (WT/N309K/N330K) were digested with BglII/PstI, and inserted into the parasite vector p-HA-2A-Neo-glmS
1. This plasmid contains an in -frame haemagglutinin (HA) epitope for protein identification and a P2A peptide (2A) to skip continuous peptide bond synthesis of a downstream neomycin resistance gene ( NeoR).
Parasites containing the transfected DNA were selected using 2.5 nM WR99210 (Jacobus). To select for parasites in which single crossover integration had occurred into the pfstart1 locus, parasites were treated with 400 μg/mL G418 (geniticin, Sigma Aldrich) for 14 days: only parasites that have integrated the construct into their genome expressed the neomycin resistance gene together with the PfSTART1 protein.
Parasite lines were cloned using limiting dilution. These clones were then tested on Western Blot (for correct HA-tagging and protein size), and correct integration and sequence were tested by PCR analysis: PCR on the gDNA was conducted using the primers START_5’UTR.F and START_Seq.R (Table S2). […]
Growth inhibition assays. Synchronised ring-stage parasites (0.3-0.6% parasitemia, 2% haematocrit) were grown for 72 h in a serial-dilution of the compound under […]
and compound 4. Note that M-833 was first purchased from MolPort (MolPort -002-267-916) then made in-house at WEHI: the differences observed in EC50s across experiments are attributed to the different batches of M -833. For some experiments, 0, 0.25 or 2.5 mM of glucosamine (GlcN) was also added. Experiments were set up in technical duplicates or triplicates. Following a freeze -thaw cycle, lactate dehydrogenase (LDH) activity was assessed as an indicator of parasite growt h 5. 30 μL of parasite culture was incubated for 30 min in the dark with 75 μL Malstat mixture (0.1 M Tris pH 9.0, 20 g/L lactic acid, pH 7.5, 0.2% Triton-X100, 0.5 g/L acetylpyridine adenine dinucleotide (APAD, Sigma), 200 μg/mL nitroblue tetrazolium (NBT; Sigma), 1 μg/mL phenozine ethosulfate (PES; Sigma)). Absorbance was then measured at 650 nm, transformed using the formula below, plotted against the logarithm of the concentrations, and a non-linear regression (log(inhibitor) vs. response, variable slope) was calculated using GraphPad Prism to assess the half-inhibitory […]
Growth inhibition % = (1 − average(sample)− average(uRBC)) ∗ 100 […]
The DMSO samples were also used to assess growth of parasite in the presence of 0.25 and 2.5 mM GlcN (normalised by DMSO in 0 mM GlcN).
Egress, invasion & recovery assay. To measure egress, invasion and follow up recovery in the presence of different compounds, we adapted the method developed in6, using Hyp1-Nluc parasites7. These parasites episomally express the exported PEXEL protein Hyp1 (PF3D7_0113300) tagged with a NanoLuc luciferase (NLuc) and were selected with 2.5 nM WR99210 (Jacobus). Highly synchronised schizonts were obtained using ML10 (LifeArc) and sorbitol synchronisation, and Percoll-purified (the culture was gently layered over 67% Percoll (Cytiva) in RPMI, and centrifuged for 15 min at 1500 g and the schizont layer was collected and washed). […]

With Cc1cc(Cl)c(S(=O)(=O)N2CCCC2)cc1OCC(=O)NC1CCCCC1 [M-833] the “Growth inhibition, (1 - av / DMSO) x 100” value (SLI-WT, M-833 conc 0.00152416 (unit not given)) was 17.8235% and 9.909% and 33.7545%, the “Growth inhibition, (1 - av / DMSO) x 100” value (SLI-WT, M-833 conc 0.00457247 (unit not given)) was 32.5193% and 13.2196% and 48.23% and the “Growth inhibition, (1 - av / DMSO) x 100” value (SLI-WT, M-833 conc 0.0137174 (unit not given)) was 64.9814% and 33.9327% and 65.9574%. The “Growth inhibition, (1 - av / DMSO) x 100” value (SLI-WT, M-833 conc 0.0411523 (unit not given)) was 82.6478% and 70.7748% and 84.2144%, the “Growth inhibition, (1 - av / DMSO) x 100” value (SLI-WT, M-833 conc 0.123457 (unit not given)) was 87.5893% and 87.6138% and 93.5055% and the “Growth inhibition, (1 - av / DMSO) x 100” value (SLI-WT, M-833 conc 0.37037 (unit not given)) was 88.1748% and 91.0017% and 95.8283%. The “Growth inhibition, (1 - av / DMSO) x 100” value (SLI-WT, M-833 conc 1.11111 (unit not given)) was 89.8172% and 92.0512% and 95.1872%, the “Growth inhibition, (1 - av / DMSO) x 100” value (SLI-WT, M-833 conc 3.33333 (unit not given)) was 91.3453% and 92.3754% and 94.862% and the “Growth inhibition, (1 - av / DMSO) x 100” value (SLI-WT, M-833 conc 10 (unit not given)) was 91.9594% and 91.8274% and 95.2708%. The sample/DMSO (M-833 0.000508053 uM, 0 mM GlcN, biological replicates 1-3) was 27.927 and 21.9727 and 25, the sample/DMSO (M-833 0.000508053 uM, 0.25 mM GlcN, biological replicates 1-3) was 42.2036 and 30.1606 and 32.1527 and the sample/DMSO (M-833 0.000508053 uM, 2.5 mM GlcN, biological replicates 1-3) was 50.9566 and 35.9886 and 36.6839. For the same molecule, the sample/DMSO (M-833 0.00152416 uM, 0 mM GlcN, biological replicates 1-4) was 49.0407 and 28.0532 and 35.8147 and 28.6219, the sample/DMSO (M-833 0.00152416 uM, 0.25 mM GlcN, biological replicates 1-4) was 60.3487 and 47.5652 and 43.8309 and the sample/DMSO (M-833 0.00152416 uM, 2.5 mM GlcN, biological replicates 1-4) was 64.731 and 51.7963 and 44.8107 and 40.64. The sample/DMSO (M-833 0.00457247 uM, 0 mM GlcN, biological replicates 1-4) was 71.0997 and 42.5489 and 51.2149 and 44.2813, the sample/DMSO (M-833 0.00457247 uM, 0.25 mM GlcN, biological replicates 1-4) was 74.8396 and 65.6157 and 57.2049 and the sample/DMSO (M-833 0.00457247 uM, 2.5 mM GlcN, biological replicates 1-4) was 78.1904 and 72.0515 and 57.0638 and 53.24. For the same molecule, the sample/DMSO (M-833 0.0137174 uM, 0 mM GlcN, biological replicates 1-4) was 83.6593 and 61.2338 and 74.7499 and 69.6413, the sample/DMSO (M-833 0.0137174 uM, 0.25 mM GlcN, biological replicates 1-4) was 88.8842 and 81.3121 and 70.4954 and the sample/DMSO (M-833 0.0137174 uM, 2.5 mM GlcN, biological replicates 1-4) was 87.5985 and 84.0064 and 69.7195 and 63.44. For the same molecule, the sample/DMSO (M-833 0.0411523 uM, 0 mM GlcN, biological replicates 1-4) was 94.394 and 79.7192 and 91.2101 and 80.3728, the sample/DMSO (M-833 0.0411523 uM, 0.25 mM GlcN, biological replicates 1-4) was 94.2399 and 92.19 and 82.349 and the sample/DMSO (M-833 0.0411523 uM, 2.5 mM GlcN, biological replicates 1-4) was 91.9649 and 89.5193 and 74.7012 and 67.08. For the same molecule, the sample/DMSO (M-833 0.123457 uM, 0 mM GlcN, biological replicates 1-4) was 97.6883 and 88.7403 and 94.7713 and 86.5433, the sample/DMSO (M-833 0.123457 uM, 0.25 mM GlcN, biological replicates 1-4) was 95.7043 and 95.071 and 88.6476 and the sample/DMSO (M-833 0.123457 uM, 2.5 mM GlcN, biological replicates 1-4) was 92.7752 and 92.3191 and 78.8024 and 71.4. The EC50 (72 h, Fig 2B, SLI-WT, 72 h, n = 3, unit only in x-axis title, read-out: EC50 (95% confidence interval)) was 13.4 nM, the EC50 (Fig 3C, SLI-WT, 0 mM GlcN, n = 4, unit on plot axis, read-out: EC50 M-833 (95% confidence interval)) was 5.9 nM and the EC50 (Fig 3C, SLI-WT, 0.25 mM GlcN, n = 4, unit on plot axis, read-out: EC50 M-833 (95% confidence interval)) was 3.1 nM. The EC50 (Fig 3C, SLI-WT, 2.5 mM GlcN, n = 4, unit on plot axis, read-out: EC50 M-833 (95% confidence interval)) was 2.6 nM, the “fold more sensitive compared to the parental 3D7 parasites” value (SLI-WT, Fig 2B) was 7 fold and the “fold reduction of EC50 on addition of 2.5 mM GlcN” value (SLI-WT, PfSTART1 knock-down) was 2.3 fold. For the same molecule, the “percent growth inhibition relative to DMSO control” value (0 mM GlcN, M-833 0.37037 uM, biological replicates 1-4) was 99.0454 and 90.3879 and 95.7242 and 88.5343, the “percent growth inhibition relative to DMSO control” value (0 mM GlcN, M-833 1.11111 uM, biological replicates 1-4) was 99.2981 and 91.8212 and 96.4269 and 89.5933 and the “percent growth inhibition relative to DMSO control” value (0 mM GlcN, M-833 3.33333 uM, biological replicates 1-4) was 98.5962 and 92.1167 and 96.403 and 89.8334. The “percent growth inhibition relative to DMSO control” value (0 mM GlcN, M-833 10 uM, biological replicates 1-4) was 99.0547 and 92.0133 and 96.7127 and 88.7461, the “percent growth inhibition relative to DMSO control” value (0.25 mM GlcN, M-833 0.37037 uM, biological replicates 1-4) was 96.4435 and 95.9038 and 89.675 and the “percent growth inhibition relative to DMSO control” value (0.25 mM GlcN, M-833 1.11111 uM, biological replicates 1-4) was 96.5272 and 97.1616 and 91.872. For the same molecule, the “percent growth inhibition relative to DMSO control” value (0.25 mM GlcN, M-833 3.33333 uM, biological replicates 1-4) was 96.834 and 96.2182 and 91.3374, the “percent growth inhibition relative to DMSO control” value (0.25 mM GlcN, M-833 10 uM, biological replicates 1-4) was 97.0851 and 96.6856 and 92.1644 and the “percent growth inhibition relative to DMSO control” value (2.5 mM GlcN, M-833 0.37037 uM, biological replicates 1-4) was 94.0131 and 93.8677 and 81.9097 and 71.68. For the same molecule, the “percent growth inhibition relative to DMSO control” value (2.5 mM GlcN, M-833 1.11111 uM, biological replicates 1-4) was 94.8008 and 94.5862 and 84.2496 and 73.4, the “percent growth inhibition relative to DMSO control” value (2.5 mM GlcN, M-833 3.33333 uM, biological replicates 1-4) was 94.7333 and 94.0783 and 84.1867 and 73.32 and the “percent growth inhibition relative to DMSO control” value (2.5 mM GlcN, M-833 10 uM, biological replicates 1-4) was 95.2735 and 94.4252 and 87.0927 and 74.36.
